Measured values published in PMC9015904 (ChemMedChem, 2022).
Where two headings read alike, the source gives them in different places. Marks after values point to notes of the source that are not given here.

Experiments:
hKOR [1] = target: T1, hKOR (Homo sapiens, UniProt P41145); test: biochemical; assay type: binding
hMOR [2] = target: T2, hMOR (Homo sapiens, UniProt P35372); test: biochemical; assay type: binding
hKOR [3] = target: T1, hKOR; test: biochemical; assay type: biochemical
hMOR [4] = target: T2, hMOR; test: GTPγS functional assay, MOR; assay type: biochemical
hDOR [5] = target: T3, hDOR (Homo sapiens, UniProt P41143); test: Competitive radioligand binding assay, DOR
T3 sequence (P41143 whole entry): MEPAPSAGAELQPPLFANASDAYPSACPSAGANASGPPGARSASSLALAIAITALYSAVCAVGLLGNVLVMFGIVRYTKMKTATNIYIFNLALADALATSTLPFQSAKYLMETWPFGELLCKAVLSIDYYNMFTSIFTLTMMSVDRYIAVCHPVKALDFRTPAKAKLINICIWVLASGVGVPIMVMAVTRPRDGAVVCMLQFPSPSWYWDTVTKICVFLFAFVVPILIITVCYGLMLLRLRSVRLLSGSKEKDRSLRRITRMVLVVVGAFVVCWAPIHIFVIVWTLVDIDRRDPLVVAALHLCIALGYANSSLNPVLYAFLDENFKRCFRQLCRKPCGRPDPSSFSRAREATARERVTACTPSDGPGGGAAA

hDOR [6] = target: T3, hDOR; test: GTPγS functional assay, DOR; assay type: biochemical
male C57BL/6NHsd mice [7] = settings: mouse, in vivo
male C57BL/6NHsd mice [8] = settings: mouse, in vivo; remark: listed apart in the source
male C57BL/6NHsd mice [9] = settings: mouse, in vivo; remark: listed apart in the source

T1 sequence (P41145 whole entry): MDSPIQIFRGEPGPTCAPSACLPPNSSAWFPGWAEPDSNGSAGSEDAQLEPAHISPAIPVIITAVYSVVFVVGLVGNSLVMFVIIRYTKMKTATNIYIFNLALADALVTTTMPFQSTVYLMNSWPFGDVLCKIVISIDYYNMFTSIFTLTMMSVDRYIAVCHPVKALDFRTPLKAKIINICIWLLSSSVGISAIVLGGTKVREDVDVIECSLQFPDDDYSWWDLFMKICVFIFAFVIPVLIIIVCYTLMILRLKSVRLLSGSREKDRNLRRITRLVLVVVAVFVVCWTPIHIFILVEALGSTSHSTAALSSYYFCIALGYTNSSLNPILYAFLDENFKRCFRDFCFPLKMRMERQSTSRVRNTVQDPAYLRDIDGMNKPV
T2 sequence (P35372 whole entry): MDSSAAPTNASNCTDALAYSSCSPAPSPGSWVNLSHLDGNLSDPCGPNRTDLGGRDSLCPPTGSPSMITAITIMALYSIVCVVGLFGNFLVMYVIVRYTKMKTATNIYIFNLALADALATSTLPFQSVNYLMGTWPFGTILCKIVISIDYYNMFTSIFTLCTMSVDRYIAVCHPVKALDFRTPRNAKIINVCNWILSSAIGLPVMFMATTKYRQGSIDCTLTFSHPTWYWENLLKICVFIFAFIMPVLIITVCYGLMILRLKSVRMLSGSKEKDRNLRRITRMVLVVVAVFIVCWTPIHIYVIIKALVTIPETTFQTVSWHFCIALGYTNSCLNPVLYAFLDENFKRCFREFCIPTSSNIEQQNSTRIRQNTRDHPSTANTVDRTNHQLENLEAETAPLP

SMILES: COC(=O)[C@@H]1C[C@H](OC(=O)C2=CCc3ccccc32)C(=O)[C@H]2[C@@]1(C)CC[C@H]1C(=O)O[C@H](c3ccoc3)C[C@]21C [Compound 1, Methyl-(2S,4aR,6aR,7R,9S,10aS,10bR)-9-((1H-indene-3-carbonyl)oxy)-2-(furan-3-yl)-6a,10b-dimethyl-4,10-dioxododecahydro-2H-benzo[f]isochromene-7-carboxylate]
- Kd (hKOR [1]): 62.3 nM
- Kd (hMOR [2]): 531 nM
- EC50 (hKOR [3]): 1570 nM
- Full or partial agonist (KOR) (hKOR [3]): 1570 (548–4500)^[c]
- EC50 (hMOR [4]): > 10000 nM

SMILES: COC(=O)[C@@H]1C[C@H](OC(=O)C2=Cc3ccccc3C2)C(=O)[C@H]2[C@@]1(C)CC[C@H]1C(=O)O[C@H](c3ccoc3)C[C@]21C [Compound 2, Methyl-(2S,4aR,6aR,7R,9S,10aS,10bR)-9-((1H-indene-2-carbonyl)oxy)-2-(furan-3-yl)-6a,10b-dimethyl-4,10-dioxododecahydro-2H-benzo[f]isochromene-7-carboxylate]
- Kd (hKOR [1]): 49.7 nM
- fold preference towards KOR (binding affinity, KOR vs MOR) (hKOR [1]): 11 fold
- Kd (hMOR [2]): 538 nM
- Kd (hDOR [5]): 714 nM
- Full or partial agonist (KOR) (hKOR [3]): 853 (456–1600)^[d]
- fold higher potency at MOR (vs KOR) (hMOR [4]; from GTPγS EC50 values): 17 fold
- EC50 (hDOR [6]): 2350 nM
- latency to hind paw lick or flutter compared to vehicle (male C57BL/6NHsd mice [7]): significant increase in the latency to paw response
- latency to tail withdrawal compared to vehicle (male C57BL/6NHsd mice [8]): Neither salvinorin A, herkinorin, nor compounds 2 or 10 demonstrated significant antinociception
- distance traveled in the maze compared to vehicle (male C57BL/6NHsd mice [9]; male, C57BL/6NHsd): neither salvinorin A, nor compound 2, altered the distance
- time spent in the open arms compared to vehicle (male C57BL/6NHsd mice [9]): significantly increased the amount of time spent on the open arms of the maze

SMILES: COC(=O)[C@@H]1C[C@H](OC(=O)C2Cc3ccccc3C2)C(=O)[C@H]2[C@@]1(C)CC[C@H]1C(=O)O[C@H](c3ccoc3)C[C@]21C [Compound 3, Methyl-(2S,4aR,6aR,7R,9S,10aS,10bR)-9-((2,3-dihydro-1H-indene-2-carbonyl)oxy)-2-(furan-3-yl)-6a,10b-dimethyl-4,10-dioxododecahydro-2H-benzo[f]isochromene-7-carboxylate]
- Kd (hKOR [1]): 1270 nM
- Kd (hMOR [2]): 3020 nM
- EC50 (hKOR [3]): 3000 nM
- Full or partial agonist (KOR) (hKOR [3]): 3000 (409–22000)^[d]
- EC50 (hMOR [4]): > 10000 nM

SMILES: COC(=O)[C@@H]1C[C@H](OC(=O)c2nc3ccccc3o2)C(=O)[C@H]2[C@@]1(C)CC[C@H]1C(=O)O[C@H](c3ccoc3)C[C@]21C [Compound 4, (2S,4aR,6aR,7R,9S,10aS,10bR)-2-(furan-3-yl)-7-(methoxycarbonyl)-6a,10b-dimethyl-4,10-dioxododecahydro-2H-benzo[f]isochromen-9-yl benzo[d]oxazole-2-carboxylate]
- binding affinity towards KOR, in words (hKOR [1]): exhibited no affinity to any of the opioid receptors
- binding affinity towards MOR, in words (hMOR [2]): exhibited no affinity to any of the opioid receptors
- binding affinity towards DOR, in words (hDOR [5]): exhibited no affinity to any of the opioid receptors

SMILES: COC(=O)[C@@H]1C[C@H](OC(=O)c2n[nH]c3ccccc23)C(=O)[C@H]2[C@@]1(C)CC[C@H]1C(=O)O[C@H](c3ccoc3)C[C@]21C [Compound 5, (2S,4aR,6aR,7R,9S,10aS,10bR)-2-(furan-3-yl)-7-(methoxycarbonyl)-6a,10b-dimethyl-4,10-dioxododecahydro-2H-benzo[f]isochromen-9-yl 1H-indazole-3-carboxylate]
- Kd (hMOR [2]): 208 nM
- EC50 (hMOR [4]): > 10000 nM

SMILES: COC(=O)[C@@H]1C[C@H](OC(=O)c2nc3ccccc3[nH]2)C(=O)[C@H]2[C@@]1(C)CC[C@H]1C(=O)O[C@H](c3ccoc3)C[C@]21C [Compound 6, (2S,4aR,6aR,7R,9S,10aS,10bR)-2-(furan-3-yl)-7-(methoxycarbonyl)-6a,10b-dimethyl-4,10-dioxododecahydro-2H-benzo[f]isochromen-9-yl 1H-benzo[d]imidazole-2-carboxylate]
- Kd (hMOR [2]): 83.2 nM
- binding affinity towards MOR, in words (hMOR [2]): exhibited selective affinity towards MOR
- EC50 (hMOR [4]): > 10000 nM

SMILES: COC(=O)[C@@H]1C[C@H](OC(=O)c2cc3c(F)cccc3[nH]2)C(=O)[C@H]2[C@@]1(C)CC[C@H]1C(=O)O[C@H](c3ccoc3)C[C@]21C [Compound 7, (2S,4aR,6aR,7R,9S,10aS,10bR)-2-(furan-3-yl)-7-(methoxycarbonyl)-6a,10b-dimethyl-4,10-dioxododecahydro-2H-benzo[f]isochromen-9-yl 4-fluoro-1H-indole-2-carboxylate]
- Kd (hKOR [1]): 57.3 nM
- Kd (hMOR [2]): 13.1 nM
- EC50 (hKOR [3]): 877 nM
- Full or partial agonist (KOR) (hKOR [3]): 877 (564–1360)^[d]
- EC50 (hMOR [4]): 211 nM

SMILES: COC(=O)[C@@H]1C[C@H](OC(=O)c2cc3cc(F)ccc3[nH]2)C(=O)[C@H]2[C@@]1(C)CC[C@H]1C(=O)O[C@H](c3ccoc3)C[C@]21C [Compound 8, (2S,4aR,6aR,7R,9S,10aS,10bR)-2-(furan-3-yl)-7-(methoxycarbonyl)-6a,10b-dimethyl-4,10-dioxododecahydro-2H-benzo[f]isochromen-9-yl 5-fluoro-1H-indole-2-carboxylate]
- Kd (hKOR [1]): 97.8 nM
- binding affinity towards MOR, in words (hMOR [2]): loss of binding affinity to MOR
- EC50 (hKOR [3]): 1110 nM
- Full or partial agonist (KOR) (hKOR [3]): 1110 (441–2790)^[c]

SMILES: COC(=O)[C@@H]1C[C@H](OC(=O)c2cc3ccc(F)cc3[nH]2)C(=O)[C@H]2[C@@]1(C)CC[C@H]1C(=O)O[C@H](c3ccoc3)C[C@]21C [Compound 9, (2S,4aR,6aR,7R,9S,10aS,10bR)-2-(furan-3-yl)-7-(methoxycarbonyl)-6a,10b-dimethyl-4,10-dioxododecahydro-2H-benzo[f]isochromen-9-yl 6-fluoro-1H-indole-2-carboxylate]
- Kd (hKOR [1]): 17 nM
- Kd (hMOR [2]): 39.7 nM
- EC50 (hKOR [3]): 419 nM
- Full or partial agonist (KOR) (hKOR [3]): 419 (240–729)^[c]
- EC50 (hMOR [4]): 973 nM

SMILES: COC(=O)[C@@H]1C[C@H](OC(=O)c2cc3cccc(F)c3[nH]2)C(=O)[C@H]2[C@@]1(C)CC[C@H]1C(=O)O[C@H](c3ccoc3)C[C@]21C [Compound 10, (2S,4aR,6aR,7R,9S,10aS,10bR)-2-(furan-3-yl)-7-(methoxycarbonyl)-6a,10b-dimethyl-4,10-dioxododecahydro-2H-benzo[f]isochromen-9-yl 7-fluoro-1H-indole-2-carboxylate]
- Kd (hKOR [1]): 53.8 nM
- fold preference towards KOR (binding affinity, KOR vs MOR) (hKOR [1]): equal binding affinity towards KOR and MOR
- Kd (hMOR [2]): 58.4 nM
- EC50 (hKOR [3]): 36.5 nM
- Full or partial agonist (KOR) (hKOR [3]): 36.5 (13.6–98.2)^[d]
- fold higher potency at KOR (vs MOR) (hKOR [3]): ~ 4 fold
- EC50 (hMOR [4]): 132 nM
- latency to hind paw lick or flutter compared to vehicle (male C57BL/6NHsd mice [7]): Neither salivinorin A, herkinorin, nor compound 10 were observed to significantly influence the latency to paw response
- latency to tail withdrawal compared to vehicle (male C57BL/6NHsd mice [8]): Neither salvinorin A, herkinorin, nor compounds 2 or 10 demonstrated significant antinociception
- distance traveled in the maze compared to vehicle (male C57BL/6NHsd mice [9]): reduction in the total distance traveled
- time spent in the open arms compared to vehicle (male C57BL/6NHsd mice [9]): Neither herkinorin nor compound 10 significantly influenced anxiety-like behavior

SMILES: COC(=O)[C@@H]1C[C@H](OC(=O)c2nc3ccccc3s2)C(=O)[C@H]2[C@@]1(C)CC[C@H]1C(=O)O[C@H](c3ccoc3)C[C@]21C [Compound 11, (2S,4aR,6aR,7R,9S,10aS,10bR)-2-(furan-3-yl)-7-(methoxycarbonyl)-6a,10b-dimethyl-4,10-dioxododecahydro-2H-benzo[f]isochromen-9-yl benzo[d]thiazole-2-carboxylate]
- Kd (hKOR [1]): 91.7 nM
- binding affinity towards KOR, in words (hKOR [1]): exhibited selective affinity towards KOR
- EC50 (hKOR [3]): 294 nM
- Full or partial agonist (KOR) (hKOR [3]): 294 (179–482)^[d]

SMILES: COC(=O)[C@@H]1C[C@H](OC(=O)c2cc3ccccn3c2)C(=O)[C@H]2[C@@]1(C)CC[C@H]1C(=O)O[C@H](c3ccoc3)C[C@]21C [Compound 12, (2S,4aR,6aR,7R,9S,10aS,10bR)-2-(furan-3-yl)-7-(methoxycarbonyl)-6a,10b-dimethyl-4,10-dioxododecahydro-2H-benzo[f]isochromen-9-yl indolizine-2-carboxylate]
- Kd (hKOR [1]): 18.4 nM
- Kd (hMOR [2]): 1390 nM
- Kd (hDOR [5]): 480 nM
- EC50 (hKOR [3]): 1560 nM
- Full or partial agonist (KOR) (hKOR [3]): 1560 (213–11500)^[c]
- EC50 (hMOR [4]): 200 nM
- EC50 (hDOR [6]): 742 nM

SMILES: COC(=O)[C@@H]1C[C@H](OC(=O)[C@H]2Cc3ccccc3N2)C(=O)[C@H]2[C@@]1(C)CC[C@H]1C(=O)O[C@H](c3ccoc3)C[C@]21C [Compound 13, (2S,4aR,6aR,7R,9S,10aS,10bR)-2-(furan-3-yl)-7-(methoxycarbonyl)-6a,10b-dimethyl-4,10-dioxododecahydro-2H-benzo[f]isochromen-9-yl (R)-indoline-2-carboxylate]
- Kd (hKOR [1]): 130 nM
- Kd (hMOR [2]): 9.04 nM
- fold preference towards MOR (binding affinity, MOR vs KOR) (hMOR [2]): 14 fold
- EC50 (hKOR [3]): 2260 nM
- Full or partial agonist (KOR) (hKOR [3]): 2260 (1360–3760)^[c]
- EC50 (hMOR [4]): 840 nM

SMILES: COC(=O)[C@@H]1C[C@H](OC(=O)[C@@H]2Cc3ccccc3N2)C(=O)[C@H]2[C@@]1(C)CC[C@H]1C(=O)O[C@H](c3ccoc3)C[C@]21C [Compound 14, (2S,4aR,6aR,7R,9S,10aS,10bR)-2-(furan-3-yl)-7-(methoxycarbonyl)-6a,10b-dimethyl-4,10-dioxododecahydro-2H-benzo[f]isochromen-9-yl (S)-indoline-2-carboxylate]
- Kd (hKOR [1]): 32.1 nM
- fold preference towards KOR (binding affinity, KOR vs MOR) (hKOR [1]): ~ 2 fold
- Kd (hMOR [2]): 77.9 nM
- EC50 (hKOR [3]): 361 nM
- Full or partial agonist (KOR) (hKOR [3]): 361 (216–602)^[d]
- EC50 (hMOR [4]): > 10000 nM

SMILES: CN1CC[C@]23c4c5ccc(O)c4O[C@H]2[C@@H](O)C=C[C@H]3[C@H]1C5 [Morphine, reference compound]
- latency to hind paw lick or flutter compared to vehicle (male C57BL/6NHsd mice [7]): significant increase in the latency to paw response
- latency to tail withdrawal compared to vehicle (male C57BL/6NHsd mice [8]): significantly increased the latency to tail withdrawal
